# Assay results published in PMC12527922, “Cocaine chemogenetics blunts drug-seeking by synthetic physiology” (Nature, 2025).
# Where “and” joins values, the source holds several entries; their conditions need not be identical. Equal entries are not always repeated.
# Experiments:
# coca-5HT3 = coca-5HT3 (Homo sapiens, UniProt P36544, G175K/L141G/Y210F/Y217F); test: [^3H]ASEM displacement, membranes of HEK293 cells expressing coca-5HT3; format: binding, human α7 nAChR LBD, mouse 5HT3 IPD; settings: for [3H]ASEM binding, normalised dose-response (DR replicates): HotNM 2.000
# Protocol: (§1) Cells were suspended in Tris-HCl 50 mM pH 7.4 supplemented with protease inhibitor cocktail (1:100, Sigma-Aldrich). HEK293 cells were disrupted with a 6 Polytron homogenizer (Kinematica). Homogenates were centrifuged at 48,000g (50 min, 4 °C) and washed twice in the same conditions to isolate the membrane fraction. Protein was quantified using the bicinchoninic acid method (Pierce). […] Free and membrane-bound radioligands were separated by rapid filtration of 500 μl aliquots in a 96-well plate harvester (Brandel) and washed with 2 ml of ice-cold Tris-HCl buffer. Microscint-20 scintillation liquid (65 μl per well, PerkinElmer) was added to the filter plates, plates were incubated overnight at room temperature and radioactivity counts were determined in the MicroBeta2 plate counter (PerkinElmer) with an efficiency of 41%. Two-site competition curves were fitted using Prism 10 (GraphPad). Ki values were calculated using the Cheng–Prusoff equation.
# coca-GlyR = target: T1, coca-GlyR (Homo sapiens, UniProt P23415+P36544, G175K/L141G/Y217F); test: [^3H]ASEM displacement, membranes of HEK293 cells expressing coca-GlyR; format: binding
# T1 construct: expressed in transfected cells; host or cells: HEK293 (ATCC CRL-1573), pcDNA3.1
# Protocol: as §1
# unmodified α7–5HT3 = target: T2, unmodified α7–5HT3 (UniProt P23979+P36544); set-up: method as in PMID 30872534; settings: cited from earlier work
# T2 construct: expressed in transfected cells; host or cells: HEK293 (ATCC CRL-1573), pcDNA3.1
# unmodified α7–GlyR = target: T3, unmodified α7–GlyR (Homo sapiens, UniProt P23415+P36544); set-up: method as in PMID 30872534; settings: cited from earlier work
# T3 construct: expressed in transfected cells; host or cells: HEK293 (ATCC CRL-1573), pcDNA3.1
# α7 nAChR = settings: cited from earlier work
# [1] = Two sites - Fit Ki, best-fit value per replicate
# [2] = Two sites - Fit Ki, best-fit value, single experiment
# coca-5HT3, sequence (P23979 242-489): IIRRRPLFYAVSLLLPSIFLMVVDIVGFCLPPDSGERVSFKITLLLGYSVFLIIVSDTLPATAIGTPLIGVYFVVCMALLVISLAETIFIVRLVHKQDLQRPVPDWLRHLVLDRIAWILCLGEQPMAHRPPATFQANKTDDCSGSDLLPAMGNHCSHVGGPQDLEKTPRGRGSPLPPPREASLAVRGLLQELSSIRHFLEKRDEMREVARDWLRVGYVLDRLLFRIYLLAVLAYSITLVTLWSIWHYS
# coca-5HT3, sequence (P36544 23-224 L141G/G175K/Y210F/Y217F): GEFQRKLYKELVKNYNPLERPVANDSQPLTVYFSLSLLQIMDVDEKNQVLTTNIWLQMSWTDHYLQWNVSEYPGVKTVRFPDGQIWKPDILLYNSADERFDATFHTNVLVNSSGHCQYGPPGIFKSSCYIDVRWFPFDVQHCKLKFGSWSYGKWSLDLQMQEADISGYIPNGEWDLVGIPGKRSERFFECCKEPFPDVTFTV
# T3 sequence (P36544+P23415 fused): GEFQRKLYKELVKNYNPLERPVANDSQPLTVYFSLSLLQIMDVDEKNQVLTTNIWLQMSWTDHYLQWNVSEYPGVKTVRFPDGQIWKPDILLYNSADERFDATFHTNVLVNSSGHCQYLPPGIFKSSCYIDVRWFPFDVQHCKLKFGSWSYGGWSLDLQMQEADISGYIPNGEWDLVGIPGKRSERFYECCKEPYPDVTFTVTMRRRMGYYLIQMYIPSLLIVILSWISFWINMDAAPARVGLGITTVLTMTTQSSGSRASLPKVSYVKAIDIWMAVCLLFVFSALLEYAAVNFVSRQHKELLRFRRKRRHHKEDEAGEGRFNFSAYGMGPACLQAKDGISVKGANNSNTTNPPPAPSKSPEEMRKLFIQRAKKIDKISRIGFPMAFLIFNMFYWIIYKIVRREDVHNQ
# T2 sequence (P36544+P23979 fused P36544:T225I/P36544:M226I): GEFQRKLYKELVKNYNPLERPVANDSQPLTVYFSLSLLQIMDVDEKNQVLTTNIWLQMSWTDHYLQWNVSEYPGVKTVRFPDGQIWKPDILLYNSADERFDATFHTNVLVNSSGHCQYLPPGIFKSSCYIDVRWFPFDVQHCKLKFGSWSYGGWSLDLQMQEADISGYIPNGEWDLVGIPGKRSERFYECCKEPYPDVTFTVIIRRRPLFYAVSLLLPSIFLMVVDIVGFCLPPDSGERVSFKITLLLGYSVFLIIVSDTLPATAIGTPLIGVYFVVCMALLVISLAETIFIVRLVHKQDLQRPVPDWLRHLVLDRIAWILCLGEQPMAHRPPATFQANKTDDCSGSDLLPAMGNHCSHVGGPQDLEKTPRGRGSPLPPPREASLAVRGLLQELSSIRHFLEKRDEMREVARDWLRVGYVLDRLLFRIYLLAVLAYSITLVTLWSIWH
# T1 sequence (P36544+P23415 fused P36544:L141G/P36544:G175K/P36544:Y217F): as the sequence (P36544+P23415 fused) above, with L119G, G153K, Y195F counted along it
structure (smiles),measurement,setting,value
O=S1(=O)c2cc(N3CCN4CCC3CC4)ccc2-c2cccc(F)c21 [ASEM],binding to coca-5HT3,coca-5HT3,biphasic manner
same,FractionHi MEAN,"coca-5HT3; Two sites - Fit Ki, MEAN of 3 experiments",0.4238
same,Bottom,coca-5HT3; [1],-0.2261 and -1.876 and -13.02
same,Top,coca-5HT3; [1],108.2 and 99.61 and 97.94
same,FractionHi,"coca-5HT3; Two sites - Fit Ki, best-fit value per replicate, fraction of high-affinity sites",0.4342 and 0.3061 and 0.4229
same,FractionHi,coca-5HT3; [2],0.4739 and 0.3529 and 0.4445
same,Top,coca-5HT3; [2],103.6 and 103.2 and 103.8
same,FractionHi MEAN,"coca-5HT3; Two sites - Fit Ki, MEAN of replicates",0.3877
same,"[3H]ASEM binding, normalised dose-response (DR replicates)",coca-5HT3; competitor log(M) -4,0 and 2.042 and -2.042
same,"[3H]ASEM binding remaining, single experiment",coca-5HT3; competitor log(M) -5,21.992 and 15.466 and 20.212
same,"[3H]ASEM binding, normalised dose-response (DR replicates)",coca-5HT3; competitor log(M) -5,13.773 and 20.58
same,"[3H]ASEM binding remaining, single experiment",coca-5HT3; competitor log(M) -5.5,26.835 and 27.725
same,"[3H]ASEM binding, normalised dose-response (DR replicates)",coca-5HT3; competitor log(M) -5.5,32.147 and 34.87 and 51.889
same,"[3H]ASEM binding remaining, single experiment",coca-5HT3; competitor log(M) -6,38.451 and 39.34
same,"[3H]ASEM binding, normalised dose-response (DR replicates)",coca-5HT3; competitor log(M) -6,39.688 and 59.43 and 60.791
same,"[3H]ASEM binding remaining, single experiment",coca-5HT3; competitor log(M) -6.5,45.049 and 48.906 and 53.356
same,"[3H]ASEM binding, normalised dose-response (DR replicates)",coca-5HT3; competitor log(M) -6.5,51.256 and 70.998 and 34.237
same,"[3H]ASEM binding remaining, single experiment",coca-5HT3; competitor log(M) -7,68.627 and 77.823 and 60.024
same,"[3H]ASEM binding, normalised dose-response (DR replicates)",coca-5HT3; competitor log(M) -7,64.248 and 83.99 and 53.356
same,"[3H]ASEM binding remaining, single experiment",coca-5HT3; competitor log(M) -8,69.758 and 69.462 and 44.246
same,"[3H]ASEM binding, normalised dose-response (DR replicates)",coca-5HT3; competitor log(M) -8,67.668 and 43.16
same,"[3H]ASEM binding remaining, single experiment",coca-5HT3; competitor log(M) -8.5,79.055 and 76.385 and 69.859
same,"[3H]ASEM binding, normalised dose-response (DR replicates)",coca-5HT3; competitor log(M) -8.5,58.761 and 45.827 and 64.888
same,"[3H]ASEM binding remaining, single experiment",coca-5HT3; competitor log(M) -9,118.645 and 95.803 and 67.325
same,"[3H]ASEM binding, normalised dose-response (DR replicates)",coca-5HT3; competitor log(M) -9,68.4 and 67.719
same,"[3H]ASEM binding remaining, single experiment",coca-5HT3; competitor log(M) -9.5,111.297 and 122.273 and 76.589
same,"[3H]ASEM binding, normalised dose-response (DR replicates)",coca-5HT3; competitor log(M) -9.5,73.805 and 71.082 and 77.209
same,"[3H]ASEM binding remaining, single experiment",coca-5HT3; competitor log(M) -10,101.728 and 95.202 and 81.556
same,"[3H]ASEM binding, normalised dose-response (DR replicates)",coca-5HT3; competitor log(M) -10,78.63 and 99.734 and 90.884
same,"[3H]ASEM binding remaining, single experiment",coca-5HT3; competitor log(M) -10.5,92.261 and 100.567 and 96.414
same,"[3H]ASEM binding, normalised dose-response (DR replicates)",coca-5HT3; competitor log(M) -10.5,94.278 and 80.663 and 86.79
same,"[3H]ASEM binding remaining, single experiment",coca-5HT3; competitor log(M) -11,96.153 and 103.569 and 104.162
same,"[3H]ASEM binding, normalised dose-response (DR replicates)",coca-5HT3; competitor log(M) -11,97.033 and 84.779 and 104.521
same,"[3H]ASEM binding remaining, single experiment",coca-5HT3; competitor log(M) -13,102.966 and 93.474 and 103.56
same,"[3H]ASEM binding, normalised dose-response (DR replicates)",coca-5HT3; competitor log(M) -13,111.346 and 109.984
same,binding to coca-GlyR,coca-GlyR,biphasic manner
CN1[C@@H]2CC[C@H]1C[C@@H](OC(=O)c1c[nH]c3ccccc13)C2 [tropisetron],activity at chimeric channel α7–5HT3,unmodified α7–5HT3,agonist
same,activity at chimeric channel α7–GlyR,unmodified α7–GlyR,agonist
same,activity at α7 nAChR,α7 nAChR,agonist
